The values that follow come from US20230382925A1, “MODULATORS OF CYSTIC FIBROSIS TRANSMEMBRANE CONDUCTANCE REGULATOR” (VERTEX PHARMACEUTICALS INCORPORATED, priority 2020, published 2023).

The assay deals with CFTR (Homo sapiens, UniProt P13569). The assay can be described thus: Membrane Potential Dye, Enteroid Assay B. Format: cell-based. The essentials:
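Human intestinal enteroid cells exposed to compound 18-24 h at 37 °C, then loaded with methyl oxonol membrane-potential dye plus CaCC blockers. Chloride transport triggered in chloride-free buffer with 10 μM forskolin, 100 μM IBMX, 300 nM Compound III; fluorescence read 15 min, expressed as % of triple-corrector/potentiator combination control.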

Setting [1] is: Table 10, read-out: Ent. B EC50.

Like-named read-outs stand apart in the source and are kept apart here. Where only a bound is given, the exact number is not on record here.

CFTR, sequence (P13569 with tags, fused parts or gaps DEL508-508): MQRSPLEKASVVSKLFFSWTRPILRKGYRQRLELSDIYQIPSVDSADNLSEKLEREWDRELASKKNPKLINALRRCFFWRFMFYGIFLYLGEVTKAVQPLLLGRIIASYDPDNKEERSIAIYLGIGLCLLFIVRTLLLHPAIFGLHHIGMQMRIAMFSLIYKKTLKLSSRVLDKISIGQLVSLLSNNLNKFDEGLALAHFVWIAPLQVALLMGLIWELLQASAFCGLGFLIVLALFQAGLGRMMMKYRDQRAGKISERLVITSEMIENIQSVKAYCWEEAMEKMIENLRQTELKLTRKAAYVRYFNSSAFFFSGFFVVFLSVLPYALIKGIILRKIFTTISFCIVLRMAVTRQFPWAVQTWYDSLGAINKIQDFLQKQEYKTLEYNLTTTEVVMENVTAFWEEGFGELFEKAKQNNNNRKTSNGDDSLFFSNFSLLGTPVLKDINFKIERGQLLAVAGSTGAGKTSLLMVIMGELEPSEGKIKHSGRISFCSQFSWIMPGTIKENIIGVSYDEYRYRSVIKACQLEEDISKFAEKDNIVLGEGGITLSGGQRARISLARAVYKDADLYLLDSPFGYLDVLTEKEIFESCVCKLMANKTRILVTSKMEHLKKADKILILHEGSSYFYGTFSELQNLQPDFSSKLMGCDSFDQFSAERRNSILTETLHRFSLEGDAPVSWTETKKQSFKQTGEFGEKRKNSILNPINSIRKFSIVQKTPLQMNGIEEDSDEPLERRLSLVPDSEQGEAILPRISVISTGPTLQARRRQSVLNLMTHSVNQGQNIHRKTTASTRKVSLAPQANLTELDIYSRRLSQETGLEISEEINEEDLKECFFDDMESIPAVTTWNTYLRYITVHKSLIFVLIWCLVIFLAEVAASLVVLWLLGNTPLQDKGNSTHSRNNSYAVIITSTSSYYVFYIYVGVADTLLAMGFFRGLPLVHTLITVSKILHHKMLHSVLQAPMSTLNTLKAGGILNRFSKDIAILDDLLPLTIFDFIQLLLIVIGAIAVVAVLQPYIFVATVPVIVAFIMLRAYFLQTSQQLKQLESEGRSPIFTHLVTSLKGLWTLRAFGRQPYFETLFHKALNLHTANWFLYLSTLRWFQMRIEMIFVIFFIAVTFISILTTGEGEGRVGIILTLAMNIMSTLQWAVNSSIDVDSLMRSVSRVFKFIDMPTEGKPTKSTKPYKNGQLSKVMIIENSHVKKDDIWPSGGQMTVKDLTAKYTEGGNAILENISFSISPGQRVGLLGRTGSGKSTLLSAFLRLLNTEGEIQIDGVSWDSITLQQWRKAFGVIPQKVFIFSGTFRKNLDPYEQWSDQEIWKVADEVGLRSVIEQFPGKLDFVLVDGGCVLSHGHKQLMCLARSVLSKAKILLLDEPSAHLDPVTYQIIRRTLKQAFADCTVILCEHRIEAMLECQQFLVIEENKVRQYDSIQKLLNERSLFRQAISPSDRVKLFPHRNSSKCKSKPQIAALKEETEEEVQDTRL

In the case of `CO[C@H]1C[C@H]2CC(N3C(=O)c4cccc(c4)S(=O)(=O)Nc4nc(cc(-c5c(C)cccc5C)n4)OC[C@H]3CC(C)C)C[C@H]2C1` (stereo partly drawn) [Compound 37, (11R)-12-[(3aR,6aS)-5-Methoxy-1,2,3,3a,4,5,6,6a-octahydropentalen-2-yl]-6-(2,6-dimethylphenyl)-11-isobutyl-2,2-dioxo-9-oxa-2λ^6-thia-3,5,12,19-tetrazatricyclo[12.3.1.14,8]nonadeca-1(18),4(19),5,7,14,16-hexaen-13-one], where the note is “Table 9”, the “Ent. B Max Activity (%)” value is listed as “+++ (+++ is >60%)”. For the same molecule, the EC50 (Table 9, read-out: Ent. B EC50) was < 1000 nM.

As for `Cc1cccc(C)c1-c1cc2nc(n1)NS(=O)(=O)c1cccc(c1)C(=O)N(C1CS(=O)(=O)C1)[C@H](CC(C)C)CO2` [Compound 41, (11R)-6-(2,6-Dimethylphenyl)-12-(1,1-dioxothietan-3-yl)-11-isobutyl-2,2-dioxo-9-oxa-2λ^6-thia-3,5,12,19-tetrazatricyclo[12.3.1.14,8]nonadeca-1(18),4(19),5,7,14,16-hexaen-13-one], the “Ent. B Max Activity (%)” value (Table 10) is listed as “+++ (+++ is >60%)”. Besides, under setting [1], the EC50 was < 1000 nM.

Turning to `Cc1cccc(C)c1-c1cc2nc(n1)NS(=O)(=O)c1cccc(c1)C(=O)N(C1CC(OC(=O)N(C)C)C1)[C@H](CC(C)C)CO2` (stereo partly drawn) [Compound 48, [3-[(11R)-6-(2,6-dimethylphenyl)-11-isobutyl-2,2,13-trioxo-9-oxa-2λ^6-thia-3,5,12,19-tetrazatricyclo[12.3.1.14,8]nonadeca-1(18),4(19),5,7,14,16-hexaen-12-yl]cyclobutyl] N,N-dimethylcarbamate], the “Ent. B Max Activity (%)” value (Table 10) is given as “++ (++ is 30-60%)”. Also, the EC50 under setting [1] was < 1000 nM.

Turning to `Cc1cccc(C)c1-c1cc2nc(n1)NS(=O)(=O)c1cccc(c1)C(=O)N(C1CC(C)(OC(F)(F)F)C1)[C@H](CC(C)C)CO2` (stereo partly drawn) [Compound 49, (11R)-6-(2,6-dimethylphenyl)-11-isobutyl-12-[3-methyl-3-(trifluoromethoxy)cyclobutyl]-2,2-dioxo-9-oxa-2λ^6-thia-3,5,12,19-tetrazatricyclo[12.3.1.14,8]nonadeca-1(18),4(19),5,7,14,16-hexaen-13-one], the “Ent. B Max Activity (%)” value (Table 10) is “++ (++ is 30-60%)”. The EC50 under setting [1] was < 1000 nM.

`Cc1cccc(C)c1-c1cc2nc(n1)NS(=O)(=O)c1cccc(c1)C(=O)N(C1CC(C)(OC(F)(F)F)C1)[C@H](CC(C)C)CO2` (stereo partly drawn) [Compound 50, (11R)-6-(2,6-dimethylphenyl)-11-isobutyl-12-[3-methyl-3-(trifluoromethoxy)cyclobutyl]-2,2-dioxo-9-oxa-2λ^6-thia-3,5,12,19-tetrazatricyclo[12.3.1.14,8]nonadeca-1(18),4(19),5,7,14,16-hexaen-13-one]: the “Ent. B Max Activity (%)” value (Table 10) is reported as “++ (++ is 30-60%)”. Under setting [1], the EC50 was < 1000 nM.

Regarding `Cc1cccc(C)c1-c1cc2nc(n1)NS(=O)(=O)c1cccc(c1)C(=O)N(C1CC3(CC3)C1)[C@H](CCC(C)(C)O)CO2` [Compound 52, (11R)-6-(2,6-Dimethylphenyl)-11-(3-hydroxy-3-methyl-butyl)-2,2-dioxo-12-spiro[2.3]hexan-5-yl-9-oxa-2λ^6-thia-3,5,12,19-tetrazatricyclo[12.3.1.14,8]nonadeca-1(18),4(19),5,7,14,16-hexaen-13-one], for the setting “Table 10”, the “Ent. B Max Activity (%)” value was “++ (++ is 30-60%)”. Besides, the half-maximal effective concentration (EC50) under setting [1] was < 1000 nM.

As to `COC1CN([C@H]2C[C@@H](N3C(=O)c4cccc(c4)S(=O)(=O)Nc4nc(cc(-c5c(C)cccc5C)n4)OC[C@H]3CC(C)C)C2)C1` [Compound 65, (11R)-6-(2,6-dimethylphenyl)-11-isobutyl-12-[3-(3-methoxyazetidin-1-yl)cyclobutyl]-2,2-dioxo-9-oxa-2λ^6-thia-3,5,12,19-tetrazatricyclo[12.3.1.14,8]nonadeca-1(18),4(19),5,7,14,16-hexaen-13-one], where the note is “Table 9”, the “Ent. B Max Activity (%)” value is “+++ (+++ is >60%)”. For the same molecule, where the note is “Table 9, read-out: Ent. B EC50”, the EC50 was < 1000 nM.

Regarding `Cc1cccc(C)c1-c1cc2nc(n1)NS(=O)(=O)c1cccc(c1)C(=O)N([C@H]1C[C@@H](N3CC(N(C)C)C3)C1)[C@H](CC(C)C)CO2` [Compound 66, (11R)-12-[3-[3-(Dimethylamino)azetidin-1-yl]cyclobutyl]-6-(2,6-dimethylphenyl)-11-isobutyl-2,2-dioxo-9-oxa-2λ^6-thia-3,5,12,19-tetrazatricyclo[12.3.1.14,8]nonadeca-1(18),4(19),5,7,14,16-hexaen-13-one], the “Ent. B Max Activity (%)” value (Table 9) is listed as “+++ (+++ is >60%)”. Besides, the EC50 (Table 9, read-out: Ent. B EC50) was < 1000 nM.

In the case of `Cc1cccc(C)c1-c1cc2nc(n1)NS(=O)(=O)c1cccc(c1)C(=O)N([C@H]1C[C@@H](N(C)CCCO)C1)[C@H](CC(C)C)CO2` [Compound 67, (11R)-6-(2,6-Dimethylphenyl)-12-[3-[3-hydroxypropyl(methyl)amino]cyclobutyl]-11-isobutyl-2,2-dioxo-9-oxa-2λ^6-thia-3,5,12,19-tetrazatricyclo[12.3.1.14,8]nonadeca-1(18),4(19),5,7,14,16-hexaen-13-one], the “Ent. B Max Activity (%)” value (Table 9) is “+++ (+++ is >60%)”. Besides, the EC50 (Table 9, read-out: Ent. B EC50) was < 1000 nM.

For `Cc1cccc(C)c1-c1cc2nc(n1)NS(=O)(=O)c1cccc(c1)C(=O)N(C1CC(N(C)[C@H](C)C(F)(F)F)C1)[C@H](CC(C)C)CO2` (stereo partly drawn) [Compound 68, (11R)-6-(2,6-Dimethylphenyl)-11-isobutyl-12-[3-[methyl-[(1R)-2,2,2-trifluoro-1-methyl-ethyl]amino]cyclobutyl]-2,2-dioxo-9-oxa-2λ^6-thia-3,5,12,19-tetrazatricyclo[12.3.1.14,8]nonadeca-1(18),4(19),5,7,14,16-hexaen-13-one], the “Ent. B Max Activity (%)” value (Table 9) was “++ (++ is 30-60%)”. Besides, the EC50 (Table 9, read-out: Ent. B EC50) is < 1000 nM.

`Cc1cccc(C)c1-c1cc2nc(n1)NS(=O)(=O)c1cccc(c1)C(=O)N(C1CC(N(C)CCC(C)(C)C)C1)[C@H](CC(C)C)CO2` (stereo partly drawn) [Compound 69, (11R)-12-[3-[3,3-dimethylbutyl(methyl)amino]cyclobutyl]-6-(2,6-dimethylphenyl)-11-isobutyl-2,2-dioxo-9-oxa-2λ^6-thia-3,5,12,19-tetrazatricyclo[12.3.1.14,8]nonadeca-1(18),4(19),5,7,14,16-hexaen-13-one]: the “Ent. B Max Activity (%)” value (Table 9) is on record as “+++ (+++ is >60%)”. For the same molecule, the EC50 (Table 9, read-out: Ent. B EC50) is < 1000 nM.

Turning to `Cc1cccc(C)c1-c1cc2nc(n1)NS(=O)(=O)c1cccc(c1)C(=O)N(C1CC(NC3CCC(C)(C)CC3)C1)[C@H](CC(C)C)CO2` (stereo partly drawn) [Compound 70, (11R)-12-[3-[(4,4-Dimethylcyclohexyl)amino]cyclobutyl]-6-(2,6-dimethylphenyl)-11-isobutyl-2,2-dioxo-9-oxa-2λ^6-thia-3,5,12,19-tetrazatricyclo[12.3.1.14,8]nonadeca-1(18),4(19),5,7,14,16-hexaen-13-one], the “Ent. B Max Activity (%)” value (Table 9) is “+++ (+++ is >60%)”. Moreover, the EC50 (Table 9, read-out: Ent. B EC50) was < 1000 nM.

In the case of `Cc1cccc(C)c1-c1cc2nc(n1)NS(=O)(=O)c1cccc(c1)C(=O)N(C1CC(NC3CCOCC3)C1)[C@H](CC(C)C)CO2` (stereo partly drawn) [Compound 71, (11R)-6-(2,6-dimethylphenyl)-11-isobutyl-2,2-dioxo-12-[3-(tetrahydropyran-4-ylamino)cyclobutyl]-9-oxa-2λ^6-thia-3,5,12,19-tetrazatricyclo[12.3.1.14,8]nonadeca-1(18),4(19),5,7,14,16-hexaen-13-one], for the setting “Table 9”, the “Ent. B Max Activity (%)” value was “+++ (+++ is >60%)”. Besides, for the setting “Table 9, read-out: Ent. B EC50”, the EC50 is < 1000 nM.
